This experiment concerns L1210 leukemia ip in BDF1 mice, survival T/C. As to the kind of experiment: NCI In Vivo Anticancer Drug Screen. Data for tumor model L1210 Leukemia (intraperitoneal) in B6D2F1 (BDF1) mice. To be noted: higher = longer survival. An outline of the steps:
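Read-out is survival time, reported as the treated-group measurement over the vehicle-control measurement.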

From PubChem BioAssay AID248 (DTP/NCI, 2004) come the findings set out here.

Several values for one entry are separate records, joined by “and”; a condition that tells them apart may be missing. Identical values can stand only once. Inconclusive results and toxic doses are left out.

As to `CNNCc1ccc(C(=O)NC(C)C)cc1`, the T/C is, setting by setting: (endpoint: mean survival time, dose: 6.5 mg/kg/injection, schedule: Q01DX009 (ip), vehicle: saline) 110 % of control and 112 % of control; (endpoint: mean survival time, dose: 8.0 mg/kg/injection, schedule: Q01DX009 (ip), vehicle: saline) 121 % of control; (endpoint: mean survival time, dose: 12.0 mg/kg/injection, schedule: Q04DX002 (ip), vehicle: saline) 93 % of control and 91 % of control; (endpoint: mean survival time, dose: 13.0 mg/kg/injection, schedule: Q01DX Z (ip), vehicle: saline) 117 % of control; (endpoint: mean survival time, dose: 16.0 mg/kg/injection, schedule: Q01DX009 (oral), vehicle: saline) 116 % of control; (endpoint: mean survival time, dose: 16.0 mg/kg/injection, schedule: Q03HX008 (ip), vehicle: saline) 106 % of control. Also, the T/C (endpoint: mean survival time, dose: 16.0 mg/kg/injection, schedule: Q03HX016 (ip), vehicle: saline) was 112 % of control; the T/C (endpoint: mean survival time, dose: 16.0 mg/kg/injection, schedule: Q03HX016 (oral), vehicle: saline) was 106 % of control; the T/C (endpoint: mean survival time, dose: 19.0 mg/kg/injection, schedule: Q01DX Z (ip), vehicle: saline) is 117 % of control; the T/C (endpoint: mean survival time, dose: 24.0 mg/kg/injection, schedule: Q04DX002 (ip), vehicle: saline) is 97 % of control; the T/C (endpoint: mean survival time, dose: 25.0 mg/kg/injection, schedule: Q01DX009 (ip), vehicle: saline) was 110 % of control and 117 % of control; the T/C (endpoint: mean survival time, dose: 25.0 mg/kg/injection, schedule: Q#A X020 (ip), vehicle: saline) is 151 % of control. Besides, the T/C (endpoint: mean survival time, dose: 32.0 mg/kg/injection, schedule: Q03HX008 (ip), vehicle: saline) is 112 % of control; the T/C (endpoint: mean survival time, dose: 32.0 mg/kg/injection, schedule: Q03HX016 (ip), vehicle: saline) is 117 % of control; the T/C (endpoint: mean survival time, dose: 37.5 mg/kg/injection, schedule: Q01DX009 (ip), vehicle: saline) is 120 % of control and 123 % of control; the T/C (endpoint: mean survival time, dose: 50.0 mg/kg/injection, schedule: Q#A X020 (ip), vehicle: saline) was 157 % of control; the T/C (endpoint: mean survival time, dose: 62.0 mg/kg/injection, schedule: Q01DX009 (ip), vehicle: saline) is 155 % of control; the T/C (endpoint: mean survival time, dose: 64.0 mg/kg/injection, schedule: Q03HX008 (ip), vehicle: saline) was 110 % of control. In addition, the T/C was 157 % of control (endpoint: mean survival time, dose: 64.0 mg/kg/injection, schedule: Q03HX024 (ip), vehicle: saline); 151 % of control (endpoint: mean survival time, dose: 100.0 mg/kg/injection, schedule: Q01DX010 (ip), vehicle: saline); 159 % of control (endpoint: mean survival time, dose: 100.0 mg/kg/injection, schedule: Q01DX010 (oral), vehicle: saline); 158 % of control (endpoint: mean survival time, dose: 125.0 mg/kg/injection, schedule: Q01DX009 (ip), vehicle: clinical formulation); 167 % of control (endpoint: mean survival time, dose: 125.0 mg/kg/injection, schedule: Q01DX009 (ip), vehicle: saline); 109 % of control (endpoint: mean survival time, dose: 128.0 mg/kg/injection, schedule: Q01DX001 (ip), vehicle: saline). The T/C reads like this: (endpoint: mean survival time, dose: 128.0 mg/kg/injection, schedule: Q01DX001 (iv), vehicle: saline) 104 % of control; (endpoint: mean survival time, dose: 128.0 mg/kg/injection, schedule: Q01DX001 (oral), vehicle: saline) 106 % of control; (endpoint: mean survival time, dose: 128.0 mg/kg/injection, schedule: Q01DX009 (oral), vehicle: saline) 155 % of control and 164 % of control; (endpoint: mean survival time, dose: 128.0 mg/kg/injection, schedule: Q03HX008 (ip), vehicle: saline) 121 % of control; (endpoint: mean survival time, dose: 128.0 mg/kg/injection, schedule: Q04DX003 (ip), vehicle: saline) 121 % of control; (endpoint: mean survival time, dose: 128.0 mg/kg/injection, schedule: Q08DX002 (oral), vehicle: saline) 106 % of control. The T/C was 150 % of control (endpoint: mean survival time, dose: 133.0 mg/kg/injection, schedule: Q01DX009 (ip), vehicle: saline); 159 % of control (endpoint: mean survival time, dose: 150.0 mg/kg/injection, schedule: Q01DX009 (ip), vehicle: saline); 112 % of control and 121 % of control (endpoint: mean survival time, dose: 250.0 mg/kg/injection, schedule: Q01DX001 (ip), vehicle: saline); 184 % of control (endpoint: mean survival time, dose: 250.0 mg/kg/injection, schedule: Q01DX009 (ip), vehicle: clinical formulation); 188 % of control (endpoint: mean survival time, dose: 250.0 mg/kg/injection, schedule: Q01DX009 (ip), vehicle: water); 99 % of control (endpoint: mean survival time, dose: 256.0 mg/kg/injection, schedule: Q01DX001 (iv), vehicle: saline). Also, the T/C is 110 % of control (endpoint: mean survival time, dose: 256.0 mg/kg/injection, schedule: Q01DX001 (oral), vehicle: saline); 104 % of control (endpoint: mean survival time, dose: 256.0 mg/kg/injection, schedule: Q08DX002 (ip), vehicle: saline); 166 % of control (endpoint: mean survival time, dose: 300.0 mg/kg/injection, schedule: Q01DX009 (ip), vehicle: saline); 117 % of control (endpoint: mean survival time, dose: 320.0 mg/kg/injection, schedule: Q01DX010 (oral), vehicle: saline); 86 % of control (endpoint: mean survival time, dose: 400.0 mg/kg/injection, schedule: Q01DX010 (im), vehicle: saline); 116 % of control (endpoint: mean survival time, dose: 400.0 mg/kg/injection, schedule: Q01DX010 (oral), vehicle: saline). The T/C is 90 % of control (endpoint: mean survival time, dose: 400.0 mg/kg/injection, schedule: Q01DX010 (sc), vehicle: saline); 155 % of control (endpoint: mean survival time, dose: 512.0 mg/kg/injection, schedule: Q04DX003 (ip), vehicle: saline); 151 % of control (endpoint: mean survival time, dose: 512.0 mg/kg/injection, schedule: Q04DX003 (oral), vehicle: saline); 103 % of control (endpoint: mean survival time, dose: 758.0 mg/kg/injection, schedule: Q04DX002 (ip), vehicle: saline); 166 % of control and 170 % of control (endpoint: median survival time, dose: 300.0 mg/kg/injection, schedule: Q01DX009 (ip), vehicle: saline); 49 % of control and 54 % of control (endpoint: median survival time, dose: 500.0 mg/kg/injection, schedule: Q01DX009 (ip), vehicle: saline).

In the case of `O=C1CSC(=S)N1c1ccc(Cl)c(Cl)c1`, the T/C (endpoint: mean survival time, dose: 50.0 mg/kg/injection, schedule: Q04DX003 (ip), vehicle: saline with Tween-80) is 96 % of control; the T/C (endpoint: mean survival time, dose: 100.0 mg/kg/injection, schedule: Q04DX003 (ip), vehicle: saline with Tween-80) is 101 % of control; the T/C (endpoint: mean survival time, dose: 200.0 mg/kg/injection, schedule: Q04DX003 (ip), vehicle: saline with Tween-80) was 104 % of control.

Regarding `CC(=O)NNc1ccccc1Cl`, the T/C (endpoint: mean survival time, dose: 100.0 mg/kg/injection, schedule: Q04DX003 (ip), vehicle: Klucel (hydroxypropylcellulose) (HPC)) is 96 % of control and the T/C (endpoint: mean survival time, dose: 200.0 mg/kg/injection, schedule: Q04DX003 (ip), vehicle: Klucel (hydroxypropylcellulose) (HPC)) is 117 % of control.

As for `CCOc1cc[n+]([O-])cc1C`, the T/C is 102 % of control (endpoint: mean survival time, dose: 50.0 mg/kg/injection, schedule: Q01DX001 (ip), vehicle: carboxymethylcellulose (CMC)) and 98 % of control (endpoint: mean survival time, dose: 100.0 mg/kg/injection, schedule: Q01DX001 (ip), vehicle: carboxymethylcellulose (CMC)).

For `c1ccc(NC2CCN(C3(c4ccccc4)CCCCC3)CC2)cc1`, where the note is “endpoint: mean survival time, dose: 100.0 mg/kg/injection, schedule: Q04DX002 (ip), vehicle: saline”, the T/C was 100 % of control.

Turning to `COc1cc(OC)c(-c2nc3cc(Cl)ccc3c(=O)o2)cc1OC`, the T/C by setting is: (endpoint: mean survival time, dose: 87.5 mg/kg/injection, schedule: Q01DX009 (ip), vehicle: Klucel (hydroxypropylcellulose) (HPC)) 114 % of control; (endpoint: mean survival time, dose: 175.0 mg/kg/injection, schedule: Q01DX009 (ip), vehicle: Klucel (hydroxypropylcellulose) (HPC)) 98 % of control; (endpoint: mean survival time, dose: 350.0 mg/kg/injection, schedule: Q01DX009 (ip), vehicle: Klucel (hydroxypropylcellulose) (HPC)) 93 % of control.

Consider `O=C(CCN1CC1)NCCCCCCCCNC(=O)CCN1CC1`, for which the T/C (endpoint: mean survival time, dose: 1.0 mg/kg/injection, schedule: Q01DX009 (ip), vehicle: saline) is 91 % of control; the T/C (endpoint: mean survival time, dose: 2.0 mg/kg/injection, schedule: Q01DX009 (ip), vehicle: saline) was 105 % of control; the T/C (endpoint: mean survival time, dose: 4.0 mg/kg/injection, schedule: Q01DX009 (ip), vehicle: carboxymethylcellulose (CMC)) is 111 % of control; the T/C (endpoint: mean survival time, dose: 8.0 mg/kg/injection, schedule: Q01DX009 (ip), vehicle: carboxymethylcellulose (CMC)) is 96 % of control; the T/C (endpoint: mean survival time, dose: 22.0 mg/kg/injection, schedule: Q01DX001 (ip), vehicle: carboxymethylcellulose (CMC)) is 111 % of control; the T/C (endpoint: mean survival time, dose: 26.0 mg/kg/injection, schedule: Q01DX009 (ip), vehicle: carboxymethylcellulose (CMC)) was 151 % of control. Moreover, the T/C runs as follows: (endpoint: mean survival time, dose: 33.0 mg/kg/injection, schedule: Q01DX001 (ip), vehicle: carboxymethylcellulose (CMC)) 122 % of control; (endpoint: mean survival time, dose: 33.0 mg/kg/injection, schedule: Q01DX009 (ip), vehicle: carboxymethylcellulose (CMC)) 151 % of control; (endpoint: mean survival time, dose: 50.0 mg/kg/injection, schedule: Q01DX009 (ip), vehicle: carboxymethylcellulose (CMC)) 160 % of control; (endpoint: mean survival time, dose: 75.0 mg/kg/injection, schedule: Q01DX001 (ip), vehicle: carboxymethylcellulose (CMC)) 150 % of control.

With `COc1ccc(C2=NC(=O)C(C)(C(C)=O)O2)cc1` (configuration not stated), the T/C runs as follows: (endpoint: mean survival time, dose: 100.0 mg/kg/injection, schedule: Q01DX001 (ip), vehicle: saline) 93 % of control; (endpoint: mean survival time, dose: 200.0 mg/kg/injection, schedule: Q01DX001 (ip), vehicle: saline) 90 % of control; (endpoint: mean survival time, dose: 400.0 mg/kg/injection, schedule: Q01DX001 (ip), vehicle: saline) 90 % of control.
